## Cc1ccsc1C1CC[C@H]1NC(=O)c1ccccc1C(F)(F)F (stereo partly shown) [Compound 116-4]
  melting point: 111 to 112 °C
